What all share (type): cell-based
The test system of series [1] is human monocyte-derived macrophages. Briefly: Human monocyte-derived macrophage apoptosis (TUNEL staining). The protocol:
(§1) Human macrophages were prepared by differentiating Ficoll gradient-separated monocytes from human blood in RPMI with 10% human serum (Gemini Bio-Products, West Sacramento, Calif.) for 10 days on Falcon PRIMARIA™ tissue culture dishes (Becton Dickinson Labware, Franklin Lakes, N.J.) without coating. Mouse thioglycolate (3%, Sigma, St. Louis, Mo.)-stimulated peritoneal macrophages were prepared from WT C57BL/6 mice (Jackson Laboratory), Fcer1a^−/− mice (congenic C57BL/6, N>8) (21), Tlr2^−/− mice (Jackson Laboratory, N16), and […] (Jackson Laboratory, C57BL/6, N8). Cells were cultured in RPMI-1640 with 10% fetal bovine serum (FBS). Human aortic SMCs and ECs were obtained from human donor aortas and subcultured at passages 2-5 in DMEM containing 10% FBS (for SMCs), or in medium 199 containing 20% FBS (for ECs).
(§2) To detect IgE-induced apoptosis, human and mouse macrophages and HuSMC were cultured on 8-well chamber slides, 96-well plates, or 6-well plate pre-coated with 1% gelatin. […]

Series [2] relates to human macrophages. Kind of series: IgE-induced human macrophage medium pH reduction. The protocol: as §1, §2
The subject of series [3] is human macrophages. Kind of series: IgE-induced human macrophage cell death (MTT assay). The note with it: human macrophages from most donors, IgE 50 μg/mL. The protocol:
as §1, §2
On the technique in general: Formazan colour is commonly taken as a measure of viable cells.

Series [4] relates to human macrophages. Kind of series: IgE-induced human macrophage IL6 secretion. Particulars: human macrophages from most donors; IgE 50 μg/mL. The protocol:
as §1
(§3) To detect cytokine production, cells were starved in corresponding media containing 0.5% FBS overnight, then incubated for 2 days in starvation media containing IgE (50 μg/mL for macrophages; 100 μg/mL for SMCs and ECs). Mouse poorly cytokinergic monomeric IgE H1 DNP-ε-206 (50 μg/mL) (34) and highly cytokinergic aggregated IgE SPE-7 (50 μg/mL) (Sigma) with or without LPS (100 ng/mL), ox-LDL (50 μg/mL), or DNP-HSA (10 ng/mL) were used to stimulate mouse macrophages. Human IgE was obtained from Immunology Consultants Laboratory, Inc. (Newberg, Oreg., RA-80E). […]

The subject of series [5] is mouse peritoneal macrophages. Kind of series: Mouse peritoneal macrophage IL6 / MCP-1 production (ELISA, real-time PCR). The protocol: as §1, §3
Series [6] relates to mouse peritoneal macrophages. Kind of series: Mouse peritoneal macrophage apoptosis / cell death (TUNEL, MTT). The note with it: 50-100 μM EIPA, 50 μg/mL mouse IgE (SPE-7). The protocol:
as §1, §2

Series [7] relates to HuECs. Kind of series: Cultured human EC (HuEC) stimulation: immunoblot, cell death. The note with it: IFN-γ 20 ng/mL, 50 μg lysate. The protocol: as §1, §3
For orientation: Immunoblotting shows a protein as a band on a membrane.

For series [8], the system named is HuSMCs. Briefly: Cultured human aortic SMC (HuSMC) stimulation: immunoblot, cytokines, cell death. The note with it: IFN-γ 20 ng/mL, 50 μg lysate. The protocol:
as §1, §3

Entries after “also recorded” stand apart in the source; their conditions may differ. Residues, ends and D or L forms follow the SMILES beside them. *: point of attachment. Cbz = O=C(OCc1ccccc1)*; CH2F = FC*

Regarding `CCN(c1nc(N)c(C(=O)NC(=N)N)nc1Cl)C(C)C` [EIPA, ethylisopropylamiloride], in series [1] (10 μM EIPA, same condition as LPS, 2-3 days, data not shown), the “cell death caused by EIPA alone” value is recorded as “did not cause any cell death”. The “blocking of IgE-induced medium color change and pH reduction” value in series [2] (10 μM EIPA, IgE 50 μg/mL) is “completely blocked”. In series [2] (EIPA alone, no IgE), the “pH change by EIPA treatment alone” value was “did not change pH”. Moreover, in series [3], the “blocking of IgE-induced cell death” value is “significantly blocked”. In series [4], the “blocking of IgE-induced IL6 secretion” value is on record as “significantly blocked”. In addition, the “blocking of IgE-induced macrophage secretion of IL6” value in series [5] (50-100 μM EIPA, 50 μg/mL mouse IgE (SPE-7)) is given as “blocked significantly”. Also, the “blocking of IgE-induced macrophage apoptosis” value in series [6] is on record as “blocked significantly”.
Take `COC(=O)C[C@H](NC(=O)[C@H](C)NC(=O)[C@@H](NC(=O)OCc1ccccc1)C(C)C)C(=O)CF` [ZVAD-FMK] (Cbz-Val-Ala-Asp(OMe)-CH2F): the “blocking of IgE-induced human macrophage apoptosis” value in series [1] (ZVAD-FMK 20 μM, IgE 50 μg/mL) is given as “blocked; also recorded: efficiently blocks”.
Regarding “dinitrophenyl-human serum albumin [DNP-HSA]”, the “impact of antigen on SPE-7 or H1 DNP-ε-206 in macrophage activity assays” value in series [5] (10 ng/mL DNP-HSA, pH, cell death and IL6 assays) is recorded as “no significant impact”.

B1: IFN-γ: inflammatory cytokine (protein, UniProt P01579 24-161, looked up)
Interferon gamma: QDPYVKEAENLKKYFNAGHSDVADNGTLFLGILKNWKEESDRKIMQSQIVSFYFKLFKNFKDDQSIQKSVETIKEDMNVKFFNSNKKKRDDFEKLTNYSVTDLNVQRKAIHELIQVMAELSPAAKTGKRKRSQMLFRG
As for B1, in series [7], the “FcεR1α expression in ECs” value is recorded as “induced FcεR1α expression”. Besides, the “FcεR1α expression in SMCs” value in series [8] is given as “induced FcεR1α expression”.

Values taken from US9676870B2, “Methods of treating atherosclerosis and aneurysm” (The Brigham and Women's Hospital, Inc., priority 2011, dated 2017).
